Measured values reported in patent US20090099187A1, “Novel 8-Sulfonyl-3 Aminosubstituted Chroman or Tetrahydronaphtalene Derivatives Modulating the 5HT6 Receptor” (AstraZeneca AB, priority 2005, published 2009).

What follows are molecules tested against rat striatal 5HT6 receptors (Rattus norvegicus, UniProt P31388).
Sequence of rat striatal 5HT6 receptors (P31388 whole entry): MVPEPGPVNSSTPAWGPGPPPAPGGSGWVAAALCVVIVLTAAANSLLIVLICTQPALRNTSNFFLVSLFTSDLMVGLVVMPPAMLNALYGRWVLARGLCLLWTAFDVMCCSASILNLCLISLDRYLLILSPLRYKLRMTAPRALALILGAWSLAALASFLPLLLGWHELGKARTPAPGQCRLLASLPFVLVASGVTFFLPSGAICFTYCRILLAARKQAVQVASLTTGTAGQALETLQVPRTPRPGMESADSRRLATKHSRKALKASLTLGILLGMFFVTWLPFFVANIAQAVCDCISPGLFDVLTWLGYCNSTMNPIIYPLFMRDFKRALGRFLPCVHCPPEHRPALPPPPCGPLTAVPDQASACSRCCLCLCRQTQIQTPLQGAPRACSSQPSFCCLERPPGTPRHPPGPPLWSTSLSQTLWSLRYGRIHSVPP
Protocol: Striatal tissue from adult rats (Sprague-Dawley, 320-370 g, B & K Sweden) were dissected out, weighed and homogenized in buffer containing 50 mM Tris-HCl, 4 mM MgCl2, 1 mM EDTA, 10 μM pargyline and protease inhibitor (Complete, Roche Diagnostics) pH 7.4 using an Ultra-Turrax T8 (IKA Labortechnik, Germany). The tissue homogenate was centrifuged at 48 000×g for 10 min and the pellet was resuspended and recentrifuged as above. The final membranes were diluted in buffer to a concentration of 60 mg original wet weight (w.w.) per ml and stored in aliquots at −70° C.
Non-specific binding was determined in the presence of 10 μM methiothepin. In the competition experiments 0.8-2 mg w.w. per tube and a radioligand concentration of 0.5-1 nM were used with 7 concentrations of the competing drug pre-dissolved in DMSO and diluted in buffer. The assays were incubated for 1-3 hours at room temperature, and terminated by rapid filtration through Whatman GF/B filters pretreated with 0.3% polyethyleneimine using a Brandel cell harvester. The radioactivity was determined in a Packard Tri-Carb 2900TR liquid scintillation counter. Data were analyzed by non-linear regression analyses using PRISM 4.00 (GraphPad Software Inc., San Diego, Calif.).

SMILES | Ki
COc1ccc(Cl)cc1NS(=O)(=O)c1ccc(OC)c2c1CC[C@H](N(C)C)C2 [Example 1, (6S)—N-(5-Chloro-2-methoxyphenyl)-6-(dimethylamino)-4-methoxy-5,6,7,8-tetrahydronaphthalene-1-sulfonamide] | 1.7 ± 0.6 nM
CN[C@H]1COc2c(S(=O)(=O)Nc3ccccc3)ccc(OC)c2C1 [Example 71, (3R)-5-Methoxy-3-(methylamino)-N-phenylchromane-8-sulfonamide] | 30 ± 7 nM
CN[C@H]1CCc2c(S(=O)(=O)Nc3ccc(Cl)cc3)ccc(OC)c2C1 [Example 25, (6S)—N-(4-chlorophenyl)-4-methoxy-6-(methylamino)-5,6,7,8-tetrahydronaphthalene-1-sulfonamide] | 12 ± 4.2 nM
COc1ccc(S(=O)(=O)Nc2cc(Cl)cc(Cl)c2)c2c1C[C@@H](N1CCCC1)CO2 [Example 69, (3R)—N-(3,5-Dichlorophenyl)-5-methoxy-3-pyrrolidin-1-ylchromane-8-sulfonamide] | 27 ± 16 nM
COc1ccc(S(=O)(=O)N2CCc3ccccc3C2)c2c1C[C@@H](N(C)C)CC2 [Example 21, [5-(3,4-Dihydro-1H-isoquinoline-2-sulfonyl)-8-methoxy-1,2,3,4-tetrahydro-naphthalen-2-yl]-dimethyl-amine] | 4.2 ± 1.4 nM
CCc1ccc(S(=O)(=O)Nc2ccc(F)c(Cl)c2)c2c1C[C@@H](N(C)C)CO2 [Example 72, (3R)—N-(3-Chloro-4-fluorophenyl)-3-(dimethylamino)-5-ethylchromane-8-sulfonamide] | 290 ± 50 nM
COc1ccc(S(=O)(=O)Nc2ccccn2)c2c1C[C@@H](N(C)C)CC2 [Example 18, (6S)-6-(Dimethylamino)-4-methoxy-N-pyridin-2-yl-5,6,7,8-tetrahydronaphthalene-1-sulfonamide] | 17 ± 5 nM
COc1ccc(Cl)cc1NS(=O)(=O)c1ccc(OC)c2c1OC[C@H](N(C)C)C2 [Example 60, (3R)—N-(5-Chloro-2-methoxyphenyl)-3-(dimethylamino)-5-methoxychromane-8-sulfonamide] | 2.3 ± 1.3 nM
